Publication PMC7338124, “Characterization of neuraminidase inhibitor-resistant influenza virus isolates from immunocompromised patients in the Republic of Korea” (Virology Journal, 2020)

What was measured:
[1] = system: 2018–2019 isolates A(H1N1)pdm09 neuraminidase, Wild; format: biochemical, influenza A(H1N1)pdm09 virus
[2] = system: 2018–2019 isolates A(H3N2) neuraminidase, Wild; format: biochemical, influenza A(H3N2) virus
[3] = system: 2018–2019 isolates B neuraminidase, Wild; format: biochemical, influenza B virus
[4] = system: A/Korea/S0003/2019 A(H1N1)pdm09 neuraminidase, Variant (H275Y); format: biochemical, influenza A(H1N1)pdm09 virus
[5] = system: A/Korea/S0002/2019 A(H1N1)pdm09 neuraminidase, Variant (H275Y); format: biochemical, influenza A(H1N1)pdm09 virus

**Q.** Which results are given for `CCC(CC)[C@H](NC(C)=O)[C@@H]1[C@H](O)[C@@H](C(=O)O)C[C@H]1N=C(N)N` [Peramivir]?
**A.** NAI resistance (IC50 fold change) [1]: 0.1 fold; NAI resistance (IC50 fold change) [2]: 0.2–0.3 fold; NAI resistance (IC50 fold change) [3]: 0.3–0.4 fold

**Q.** What does the source list for `CC(=O)N[C@H]1[C@H]([C@H](O)[C@H](O)CO)OC(C(=O)O)=C[C@@H]1N=C(N)N` [Zanamivir]?
**A.** NAI resistance (IC50 fold change) [4]: NI 2.56 fold; Susceptibility to NAI (in words) [4]: normally susceptible; NAI resistance (IC50 fold change) [5]: NI 0.44 fold; Susceptibility to NAI (in words) [5]: normally susceptible; NAI resistance (IC50 fold change) [1]: 0.3–0.7 fold; NAI resistance (IC50 fold change) [2]: 0.4–0.8 fold; NAI resistance (IC50 fold change) [3]: 0.7–1.6 fold

**Q.** For `CCOC(=O)C1=C[C@@H](OC(CC)CC)[C@H](NC(C)=O)[C@@H](N)C1` [Oseltamivir], which “NAI resistance (IC50 fold change)” value [1] is on record?
**A.** The value was 0.1–1.2 fold.

**Q.** What about the “NAI resistance (IC50 fold change)” value [2] of the same compound?
**A.** Its value is 0.1–0.2 fold.
